{"source": "patent US7052486B2", "about": "“Method and system for treating depressive and anxiety disorders” (Medtronic, Inc., priority 2003, dated 2006)", "origin": "cited, not measured here", "key": {"depression": {"test_system": "depression", "details": "administered parenterally (IV or SQ)"}, "refractory depression": {"test_system": "refractory depression", "details": "single intrathecal bolus"}, "[1]": {"test_system": "refractory obsessive-compulsive disorder (OCD)", "details": "chronic parenteral use"}}, "data": [{"smiles": "NC(=O)[C@@H]1CCCN1C(=O)[C@H](Cc1cnc[nH]1)NC(=O)[C@@H]1CCC(=O)N1", "note": "[TRH, Thyrotropin-releasing hormone]", "values": [{"measurement": "response in depression", "setting": "depression", "result": "unpredictable responses"}, {"measurement": "patients successfully treated for refractory depression", "setting": "refractory depression", "result": "7 out of 10"}, {"measurement": "time to rapid and dramatic improvement in the symptoms of severe depression", "setting": "refractory depression", "result": "< 24", "unit": "h"}]}, {"smiles": "CNS(=O)(=O)Cc1ccc2[nH]cc(CCN(C)C)c2c1", "note": "[sumatriptan]", "values": [{"measurement": "OCD behaviors", "setting": "[1]", "result": "only modest reductions"}, {"measurement": "symptoms of depression as measured by the Hamilton scale", "setting": "[1]", "result": "significant improvements"}]}]}
